# Legend:
# [1] = tested on: dorsal skin of Balb/C mice; experiment: Skin epidermis atrophy after 8-day topical treatment of dorsal skin; type: in vivo; conditions: eight-day topical treatment
# Description: To investigate whether, similarly to Dex, a topical administration of CpdX could result in a skin atrophy, Balb/C mice were shaved on the dorsal skin. Ethanol (vehicle), Dex, CpdX or either one of its two enantiomers CpdX(eA) or CpdX(eB), as well as the deuterated form CpdX-D3 or either one of its two enantiomers CpdX-D3(eA) or CpdX-D3(eB), were topically applied onto the dorsal skin for 8 days.
# Upon completion of the treatments, RNA transcripts were extracted from dorsal skin samples and the transcripts of Kindlin-1 and REDD1 genes were analyzed by q-RT-PCR. Histological and morphometric analyses of the dorsal skin were also performed.
# [2] = tested on: collagen-induced Th17 rheumatoid arthritis-like inflammation; experiment: Collagen-induced arthritis (CIA); type: in vivo, mice (DBA-1 strain); conditions: for hind paw thickness at the ankle level: i.p. 1 mg/kg daily for 10 days (T0 to T10); for RNA transcripts of pro-inflammatory genes in hind paws (IL-1β, IL-6, IL-17a, IL-17f, TNFα): i.p. 1 mg/kg daily, T10, q-RT-PCR
# Experimental: Mice were treated with collagen to induce a Th17 rheumatoid arthritis-like inflammation as described by Inglis et al. (2007. Arthritis Res Ther. 9(5):R113) and Geboes et al. (2009. Arthritis Rheum. 60(2):390-5).
# Male mice (DBA-1 strain) were subcutaneously-injected with 100 μg collagen per mouse on D0. The hind paw thickness at the ankle level was regularly measured with a caliper. When the ankle thickness had reached around 4 mm (T0, i.e., 30 to 50 days after the collagen injection on D0), mice were daily intraperitoneally-injected for 10 days (T0 to T10) with either vehicle (NaCl 0.9%), Dex, CpdX, CpdX(eA), CpdX(eB), CpdX-D3, CpdX-D3(eA) or CpdX-D3(eB) (1 mg/kg body weight diluted in NaCl 0.9%), and the hind paw thickness at the ankle level was daily measured with a caliper. Pictures of the hind paws were taken at days T0 and T10 (before and after the treatment with either Vehicle, Dex, CpdX, CpdX(eA), CpdX(eB), CpdX-D3, CpdX-D3(eA) or CpdX-D3(eB)), in order to assess the course of swelling.
# RNA transcripts were extracted from whole hind paws of collagen-untreated and collagen-treated mice at T0 and T10. IL-1β, IL-6, IL-17a, IL-17f and TNFα transcripts were analyzed by q-RT-PCR.
# [3] = tested on: HDM-induced asthma-like allergic lung inflammation; experiment: House dust mite (HDM)-induced asthma-like allergic lung inflammation; type: in vivo, mice
# Experimental: Glucocorticoids have been (Pearlman et al., 1997. Ann Allergy Asthma Immunol. 78(4):356-62), and are still, widely used in asthma therapy. In order to investigate the possible CpdX anti-inflammatory activity in vivo, mice were sensitized and challenged with either ovalbumin (OVA) or house dust mite (HDM) to induce an asthma-like allergic lung inflammation.
# Mice were intranasally sensitized with 1 μg HDM from D0 to D4, and further intranasally sensitized with 10 μg HDM on D14 and D21. Mice were then subdivided into eight groups, and on D29, D30 and D31, each mouse was again intranasally challenged with […]. The first seven groups received respectively 0.5 mg/kg of body weight of Dex, CpdX, CpdX(eA), CpdX(eB), CpdX-D3, CpdX-D3(eA) or CpdX-D3(eB), while the eighth group served as a control.
# On D32, the airway responsiveness was invasively determined using a computer-controlled small animal ventilator (FlexVent® system, SCIREQ Technologies). Mice were anesthetized with xylazine (15 mg/kg, i.p.), followed 15 minutes later by an i.p. injection of pentobarbital sodium (54 mg/kg). An 18-gauge metal needle was then inserted into the trachea, each mouse was connected to the FlexVent® ventilator and quasi-sinusoidally ventilated with a tidal volume of 10 mL/kg at a frequency of 150 breaths/minute and a positive end-expiratory pressure of 2 cm H2O, in order to achieve a mean lung volume close to spontaneous breathing. After baseline measurement, mice were challenged for 10 seconds with a saline aerosol and, at 4.5-minute intervals, with 50 mg/mL methacholine. Airway resistance and elastance were expressed as cmH2O.s/mL and cmH2O/mL respectively.
# The lung allergic inflammation was assessed by examination of the bronchoalveolar lavage (BAL) fluid from each of these HDM-challenged mice. The total BAL cells, eosinophils, neutrophils, macrophages and lymphocytes were counted. RNA transcripts were extracted from lung samples. RNA transcripts of IL-1β, IL-6, IL-4, IL-5, IL-13, Eotaxin, CCL4, IL-10 and TNFα were analyzed by q-RT-PCR. Lung tissues were harvested and histological (with H&E staining) and immunohistochemical analyses were also carried out (with eosinophil-specific and neutrophil-specific antibodies).
# [4] = Blood glucose and intraperitoneal glucose tolerance test (IPGTT) after three-month treatment; type: in vivo, B6 male mice; conditions: three months; glucose i.p. injection
# Experimental: B6 male mice (8-week-old) were daily subjected for three months to a subcutaneous injection of either vehicle (NaCl 0.9%), Dex, CpdX, CpdX(eA), CpdX(eB), CpdX-D3, CpdX-D3(eA) or CpdX-D3(eB) (1 mg/kg body weight, diluted in vehicle). Mice were over-night-fasted. Mouse blood glucose concentration was measured before (To) and during two hours (T120) after glucose i.p. injection ([…]).
# [5] = tested on: OVA-induced allergic conjunctivitis; experiment: Ovalbumin (OVA)-induced allergic conjunctivitis; type: in vivo, Balb/C mice; conditions: 0.1% instillation D22 to D24, 20 minutes after the last OVA challenge
# Experimental: To investigate the anti-inflammatory effect of CpdX or CpdX-D3 on an allergic conjunctivitis, Balb/C mice were intraperitoneally sensitized with 50 μg OVA with alum on both days D1 and D8, and then challenged from D15 to D21 with 250 μg OVA in 5 μL of sterilized vehicle (0.9% NaCl), which were directly instilled onto the conjunctival sac. From D22 to D24, mice were divided into several groups, and received instillations with either OVA alone, OVA together with 0.1% of either Dex, CpdX, CpdX(eA), CpdX(eB), CpdX-D3, CpdX-D3(eA) or CpdX-D3(eB).
# The clinical appearance of mouse eyes was evaluated 20 minutes after the last instillation on D24. Clinical signs (conjunctival hyperemia, lid edema and tearing) were scored to evaluate the occurrence and severity of conjunctivitis as described by Gimenes et al. (2015. Experimental Eye Research 134:24-32). Parameters were graded on a scale ranging from 0 to 3, (0=absence, 1=mild, 2=moderate, and 3=severe symptoms), each animal receiving a total clinical score ranging from 0 to 9. The data were expressed as mean±SEM with at least four mice per treatment.
# [6] = HDM model, 0.5 mg/kg, D32, vs control group
# [7] = HDM model, lung paraffin sections
# [8] = methacholine 50 mg/mL, FlexVent
# [9] = HDM model, 0.5 mg/kg, D32, vs control group; 0.5 mg/kg
epidermal thickness (morphometric analyses) [1],SMILES,hind paw thickness at the ankle level [2],"RNA transcripts of pro-inflammatory genes in hind paws (IL-1β, IL-6, IL-17a, IL-17f, TNFα) [2]","number of neutrophils and macrophages in BAL ([3]; HDM model, 0.5 mg/kg, D32)","total number of BAL cells, eosinophils and lymphocytes [3, 6]","eosinophils in lung (immunohistochemistry, eosinophil-specific antibodies) ([3]; HDM model, data not shown)","lung expression of IL-10 and TNFα ([3]; HDM model, data not shown)","neutrophils in lung (immunohistochemistry, neutrophil-specific antibody) ([3]; HDM model, data not shown)","peribronchiolar and perivascular inflammatory cell infiltration (histology) [3, 7]","lung expression of pro-inflammatory genes (IL-1β, IL-6, IL-4, IL-5, IL-13, Eotaxin, CCL4) ([3]; HDM model, q-RT-PCR)","HDM-induced airway hyperresponsiveness (AHR), airway resistance and elastance [3, 8]",blood glucose level during two-hour IPGTT [4],"clinical signs of allergic conjunctivitis (conjunctival hyperemia, lid edema and tearing) [5]","RNA transcripts of pro-inflammatory genes in hind paws (IL-1β, IL-6, IL-17a, IL-17f, TNFα) ([2]; 1 mg/kg)","total number of BAL cells, eosinophils and lymphocytes [3, 9]"
not significantly decreased,"COc1ccc(F)cc1C(C)(C)CC(O)(CNc1ccc2c(c1)COC2=O)C(F)(F)F (racemic) [CpdX, 5-[4-(5-fluoro-2-methoxyphenyl)-2-hydroxy-4-methyl-2-(trifluoromethyl)pentylamino]-isobenzofuran-1(3H)-one]",rapid decrease,similarly repressed,No significant change,significantly decreased,decreased,not affected,no significant change,strongly decreased,significantly and similarly decreased,similarly reduced,no significant difference,considerably reduced,–,–
not significantly decreased,"[2H]C([2H])([2H])Oc1ccc(F)cc1C(C)(C)CC(O)(CNc1ccc2c(c1)COC2=O)C(F)(F)F (racemic) [CpdX-D3, 5-{4-[2-(methoxy-D3)-5-fluorophenyl]-2-hydroxy-4-methyl-2-(trifluoromethyl)pentylamino}isobenzofuran-1(3H)-one]",rapid decrease,similarly repressed,No significant change,significantly decreased,decreased,not affected,no significant change,strongly decreased,significantly and similarly decreased,similarly reduced,no significant difference,considerably reduced,–,–
not significantly decreased,"COc1ccc(F)cc1C(C)(C)CC(O)(CNc1ccc2c(c1)COC2=O)C(F)(F)F (single isomer, unassigned; enantiomer a) [CpdX(eA), 5-[4-(5-fluoro-2-methoxyphenyl)-2-hydroxy-4-methyl-2-(trifluoromethyl)-pentylamino]isobenzofuran-1(3H)-one enantiomer A]",–,–,–,–,–,–,–,decreased,efficiently decreased,reduced,no significant difference,considerably reduced,similarly repressed,efficiently decreased
not significantly decreased,"[2H]C([2H])([2H])Oc1ccc(F)cc1C(C)(C)CC(O)(CNc1ccc2c(c1)COC2=O)C(F)(F)F (single isomer, unassigned; enantiomer a) [CpdX-D3(eA), 5-{4-[2-(methoxy-D3)-5-fluorophenyl]-2-hydroxy-4-methyl-2-(trifluoromethyl)pentylamino}isobenzofuran-1(3H)-one enantiomer A]",–,–,–,–,–,–,–,decreased,efficiently decreased,–,no significant difference,considerably reduced,similarly repressed,efficiently decreased
